Results published in patent US4937360A, “N-substituted amide derivatives useful for treating liver diseases” (Taisho Pharmaceutical Co., Ltd., priority 1988, dated 1990).

Columns and labels:
[1] = tested on: acute liver injury induced by carbon tetrachloride; assay: Effect on acute liver injury induced by carbon tetrachloride (serum GPT); format: in vivo, male ICR strain mice; settings: oral, mice, 18 hours; for GPT: mean ± S.E.; for Inhibition %: serum GPT vs control
Description: (§1) Effect on acute liver injury induced by carbon tetrachloride Ten male ICR strain mice (six weeks old, about 30 g of body weight) per group were used for the test. Suspensions of the compound, obtained in Example 1, in 5% gum arabic solution in various concentrations were prepared for test drugs. A 5% gum arabic solution was used as a control. The test drugs and a 5% gum arabic solution were each administered orally in an amount of 10 ml/kg of body weight to different animals. After standing for 18 hours, the animals were anesthetized with ether, the blood was drawn and centrifuged for measuring the serum GPT value. Malotilate served as a comparative test drug.

[2] = tested on: acute liver injury induced by D-galactosamine; assay: Effect on acute liver injury induced by D-galactosamine (serum GPT); format: in vivo, male Wister strain rats; settings: oral, rats, 18 hours; for GPT: mean ± S.E.; for Inhibition %: serum GPT vs control
Description: as §1, with “D-galactosamine Six” for “carbon tetrachloride Ten”, “Wister” for “ICR”, “rats (eight” for “mice (six”, “200” for “30”, “5” for “10”

| SMILES | GPT ([1]; 10 mg/kg) [IU/1] | Inhibition % ([1]; 10 mg/kg) [%] | GPT ([1]; 30 mg/kg) [IU/1] | Inhibition % ([1]; 30 mg/kg) [%] | GPT ([1]; 100 mg/kg) [IU/1] | Inhibition % ([1]; 100 mg/kg) [%] | GPT ([2]; 30 mg/kg) [IU/1] | Inhibition % ([2]; 30 mg/kg) [%] | GPT ([2]; 100 mg/kg) [IU/1] | Inhibition % ([2]; 100 mg/kg) [%] | GPT ([2]; 300 mg/kg) [IU/1] | Inhibition % ([2]; 300 mg/kg) [%] |
| --- | --- | --- | --- | --- | --- | --- | --- | --- | --- | --- | --- | --- |
| CC(C)OC(=O)C(C(=O)OC(C)C)=C1SC=CS1 [B, Malotilate] | 4291 ± 1012 | 28 | 1778 ± 310 | 71 | 148 ± 40 | 98 | 19240 ± 1183 | 6.4 | 11190 ± 777 | 45.6 | 15557 ± 1669 | 24.6 |
| CC(=O)N(C)CC(=O)c1ccc2c(c1)OCO2 [A, N-methyl-N-(3,4-methylenedioxyphenacyl)acetamide] | 2634 ± 380 | 56 | 636 ± 245 | 89 | 39 ± 3 | 100 | 15972 ± 2810 | 22.5 | 7440 ± 757 | 64.1 | 4415 ± 1539 | 78.8 |
